47 compounds from US10155764B2, “Therapeutic compounds and uses thereof” (GENENTECH, INC., priority 2014, dated 2018) can be followed below.

Each structure is given as a SMILES string. Structures can show the parent of a compound that is named as a salt. Bounds are passed on as bounds.

PCAF719-832 bromodomain, sequence (Q92831 719-832): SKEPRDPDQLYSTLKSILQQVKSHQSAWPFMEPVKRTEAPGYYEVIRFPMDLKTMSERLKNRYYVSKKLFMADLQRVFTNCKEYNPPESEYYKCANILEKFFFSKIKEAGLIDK

The assay has as its target PCAF719-832 bromodomain (Homo sapiens (Human), UniProt Q92831). The assay is described as follows: PCAF AlphaLisa binding assay. The note with it: PCAF bromodomain 225 nM, biotinylated small molecule ligand 6 nM. Background: Bead proximity is the source of the signal in Alpha formats.
Description: PCAF bromodomain binding and inhibition of the compounds disclosed herein was assessed by monitoring the engagement of biotinylated small molecule ligand (known to bind to the PCAF bromodomain) with the target using the AlphaLisa technology (Perkin-Elmer).
Take `Cn1nc(N[C@H]2CCCC[C@H]2N)c2ncccc2c1=O` (single isomer, unassigned) [Example 14B]: the 50% inhibitory concentration (IC50) (usually the concentration at which inhibition is half-maximal) worked out at 1500 nM. In other words, the single-digit micromolar range.

Take `CN(C)[C@@H](CNc1nn(C)c(=O)c2ccccc12)c1ccccc1` (single isomer, unassigned) [Example 22B]: the IC50 is 550 nM.

Compound `C[C@@H](CN(C)C)Nc1nn(C)c(=O)c2cccnc12` (single isomer, unassigned) [Example 8A] came in with a 50% inhibitory concentration (IC50) of 42 nM.

`CN(C)CCNc1nn(C)c(=O)c2c(F)cccc12` [Example 6, 4-((2-(dimethylamino)ethyl)amino)-8-fluoro-2-methylphthalazin-1(2H)-one] showed a half-maximal inhibitory concentration (IC50) of 87 nM.

The compound `CN(C)[C@H]1CCCC[C@@H]1Nc1nn(C)c(=O)c2cccnc12` (single isomer, unassigned) [Example 11B] had an IC50 of more than 5000 nM.

`CN(C)[C@H]1c2ccccc2C[C@H]1Nc1nn(C)c(=O)c2ccccc12` [Example 47B, 4-(((1S,2R)-1-(dimethylamino)-2,3-dihydro-1H-inden-2-yl)amino)-2-methylphthalazin-1(2H)-one] displayed a half-maximal inhibitory concentration (IC50) of more than 5000 nM.

For the compound `C[C@H](Nc1nn(C)c(=O)c2ccccc12)[C@H](c1ccc(OCc2ccccc2)cc1)N(C)C` (stereo in doubt) [Example 77, 4-((1-(4-(benzyloxy)phenyl)-1-(dimethylamino)propan-2-yl)amino)-2-methylphthalazin-1(2H)-one], the IC50 turned out to be 36 nM.

For `Cc1cccc2c(=O)n(C)nc(N[C@H](C)[C@@H](c3ccccc3)N(C)C)c12` (single isomer, unassigned) [Example 70B], the 50% inhibitory concentration (IC50) stood at 1800 nM.

`Cn1nc(NCCN2CCC2)c2ccccc2c1=O` [Example 50, 4-((2-(azetidin-1-yl)ethyl)amino)-2-methylphthalazin-1(2H)-one] showed a concentration for half-maximal inhibition (IC50) of 990 nM.

In turn, `CN1CCCC(Nc2nn(C)c(=O)c3ccccc23)C1` (racemic) [Example 43, 2-methyl-4-((1-methylpiperidin-3-yl)amino)phthalazin-1(2H)-one] registered an IC50 of 790 nM.

Turning to `C[C@H](Nc1nn(C)c(=O)c2cccnc12)[C@H](c1ccc(C(=O)O)cc1)N(C)C` [Example 81, 4-((1S,2S)-1-(dimethylamino)-2-((6-methyl-5-oxo-5,6-dihydropyrido[2,3-d]pyridazin-8-yl)amino)propyl)benzoic acid], the IC50 is 98 nM.

In turn, `C[C@H](CN(C)C)Nc1nn(C)c(=O)c2cccnc12` (single isomer, unassigned) [Example 8B] showed an IC50 of more than 5000 nM.

Compound `Cc1cccc2c(N[C@@H](C)[C@H](c3ccccc3)N(C)C)nn(C)c(=O)c12` (single isomer, unassigned) [Example 69A] had an IC50 of more than 5000 nM.

Consider `C[C@H](Nc1nn(C)c(=O)c2ccccc12)[C@H](c1ccc(Oc2ccccn2)cc1)N(C)C` (single isomer, unassigned) [Example 80], for which the half-inhibitory concentration (IC50) stood at 46 nM. That is a double-digit nanomolar value.

`CN(C)C(CNc1nn(C)c(=O)c2c1CCC2)c1ccccc1` (racemic) [Example 37, 4-((2-(dimethylamino)-2-phenylethyl)amino)-2-methyl-2,5,6,7-tetrahydro-1H-cyclopenta[d]pyridazin-1-one] returned an IC50 of 130 nM.

In turn, `C[C@@H](Nc1nn(C)c(=O)c2ccccc12)[C@@H](c1ccccc1)N(C)C` (single isomer, unassigned) [Example 73B] gave a half-inhibitory concentration (IC50) of 680 nM.

`CCn1nc(N[C@H](C)CN(C)C)c2ccccc2c1=O` (single isomer, unassigned) [Example 17A] displayed an IC50 of more than 5000 nM.

For the compound `Cc1cccc2c(=O)n(C)nc(N[C@@H](C)[C@H](c3ccccc3)N(C)C)c12` (single isomer, unassigned) [Example 70A], the concentration for half-maximal inhibition (IC50) was determined as 36 nM.

In turn, `CN(C)CCNc1nn(C)c(=O)c2ccccc12` [Example 29, 4-((2-(dimethylamino)ethyl)amino)-2-methylphthalazin-1(2H)-one] showed an IC50 of 150 nM. Compared with the last compound, the IC50 is about 4.2-fold higher.

Turning to `CN1CCC(Nc2nn(C)c(=O)c3ccccc23)C1` (racemic) [Example 44, 2-methyl-4-((1-methylpyrrolidin-3-yl)amino)phthalazin-1(2H)-one], the IC50 is 260 nM.

Take `C[C@@H](Nc1nn(C)c(=O)c2[nH]ccc12)[C@@H](c1ccccc1)N(C)C` (single isomer, unassigned) [Example 71B]: the concentration for half-maximal inhibition (IC50) was determined as 83 nM. Against the preceding compound, the IC50 is about 3.1-fold lower.

On to `CC(CN(C)C)Nc1nn(C)c(=O)c2ccccc12` (racemic) [Example 28, 4-((1-(dimethylamino)propan-2-yl)amino)-2-methylphthalazin-1(2H)-one], for which the IC50 is 66 nM.

For the compound `CC(C)NCCNc1nn(C)c(=O)c2ccccc12` [Example 40, 4-((2-(isopropylamino)ethyl)amino)-2-methylphthalazin-1(2H)-one], the IC50 came out at 9400 nM. Against the preceding compound, the IC50 is about 140-fold higher.

With `C[C@H](Nc1nn(C)c(=O)c2ccccc12)[C@H](c1cccnc1)N(C)C` (single isomer, unassigned) [Example 61], the IC50 was 86 nM.

Compound `CC(CN(C)C)Nc1nn(C)c(=O)c2c1CN(c1ccc(Cl)cc1)CC2` (racemic) [Example 90, 6-(4-chlorophenyl)-4-((1-(dimethylamino)propan-2-yl)amino)-2-methyl-5,6,7,8-tetrahydropyrido[3,4-d]pyridazin-1(2H)-one] had an IC50 of 820 nM.

`C[C@H](Nc1nn(C)c(=O)c2ccccc12)[C@H](c1ccc(S(=O)(=O)c2ccccc2)cc1)N(C)C` [Example 55, 4-(((1S,2S)-1-(dimethylamino)-1-(4-(phenylsulfonyl)phenyl)propan-2-yl)amino)-2-methylphthalazin-1(2H)-one] came in with an IC50 of 61 nM. This IC50 lies about 13-fold lower than the previous one.

`CN(C)[C@@H](CNc1nn(C)c(=O)c2cccnc12)c1ccccc1` [Example 1B, (R)-8-((2-(dimethylamino)-2-phenylethyl)amino)-6-methylpyrido[2,3-d]pyridazin-5(6H)-one] displayed an IC50 of 2200 nM.

`CN(C)[C@H](CNc1nn(C)c(=O)c2ccccc12)c1ccccc1` (single isomer, unassigned) [Example 22A] gave an IC50 of 47 nM.

Compound `CNC(=O)c1ccc([C@@H]([C@H](C)Nc2nn(C)c(=O)c3cccnc23)N(C)C)cc1` (single isomer, unassigned) [Example 85] gave an IC50 of 50 nM.

Compound `CN(C)C(CNc1nn(C)c(=O)c2ccccc12)C1CCCCC1` (racemic) [Example 38, 4-((2-cyclohexyl-2-(dimethylamino)ethyl)amino)-2-methylphthalazin-1(2H)-one] came in with a 50% inhibitory concentration (IC50) of 700 nM.

As for `C[C@H](Nc1nn(C)c(=O)c2ccccc12)[C@H](c1ccc(OCC2CC2)cc1)N(C)C` (single isomer, unassigned) [Example 78], the IC50 was determined as 44 nM.

For the compound `CC[C@H](CNc1nn(C)c(=O)c2ccccc12)N(C)C` (single isomer, unassigned) [Example 39B], the IC50 stood at 89 nM.

In turn, `COCCN(C)CCNc1nn(C)c(=O)c2ccccc12` [Example 49, 4-((2-((2-methoxyethyl)(methyl)amino)ethyl)amino)-2-methylphthalazin-1(2H)-one] came in with an IC50 of 3500 nM.

Compound `CN(C)[C@H]1c2ccccc2C[C@H]1Nc1nn(C)c(=O)c2cccnc12` [Example 46B, 8-(((1S,2R)-1-(dimethylamino)-2,3-dihydro-1H-inden-2-yl)amino)-6-methylpyrido[2,3-d]pyridazin-5(6H)-one] registered a half-inhibitory concentration (IC50) of more than 5000 nM.

Compound `COc1ccc(C(CNc2nn(C)c(=O)c3ccccc23)N(C)C)cc1` (racemic) [Example 21, 4-((2-(dimethylamino)-2-(4-methoxyphenyl)ethyl)amino)-2-methylphthalazin-1(2H)-one] registered an IC50 of 64 nM.

On to `Cn1nc(N[C@@H]2CCCC[C@H]2N)c2ccccc2c1=O` (racemic) [Example 35, 4-(((1R,2R)-2-aminocyclohexyl)amino)-2-methylphthalazin-1(2H)-one], for which the IC50 came out at 12000 nM.

The compound `Cn1nc(NC2CNC2)c2ncccc2c1=O` [Example 19, 8-(azetidin-3-ylamino)-6-methylpyrido[2,3-d]pyridazin-5(6H)-one] had a half-maximal inhibitory concentration (IC50) of 3400 nM.

As to `C[C@H](Nc1nn(C)c(=O)c2cccnc12)[C@H](c1ccc(C(=O)OCc2ccccc2)cc1)N(C)C` [Example 87, benzyl 4-((1S,2S)-1-(dimethylamino)-2-((6-methyl-5-oxo-5,6-dihydropyrido[2,3-d]pyridazin-8-yl)amino)propyl)benzoate hydrochloride], the concentration for half-maximal inhibition (IC50) stood at 29 nM. This IC50 is about 120-fold lower than that of the compound before.

In the case of `CN1CC(Nc2nn(C)c(=O)c3cccnc23)C1` [Example 18, 6-methyl-8-((1-methylazetidin-3-yl)amino)pyridol[2,3-d]pyridazin-5(6H)-one], the IC50 worked out at 1500 nM.

`C/C=C/Cn1nc(NC(C)CN(C)C)c2ccccc2c1=O` (racemic) [Example 31, (E)-2-(but-2-en-1-yl)-4-((1-(dimethylamino)propan-2-yl)amino)phthalazin-1(2H)-one]: the IC50 was 8100 nM.

As to `COc1ccc([C@@H]([C@H](C)Nc2nn(C)c(=O)c3ccccc23)N(C)C)cn1` (single isomer, unassigned) [Example 62], the half-maximal inhibitory concentration (IC50) was 63 nM. This IC50 lies about 130-fold lower than the previous one.

Turning to `CN1CCCC1CNc1nn(C)c(=O)c2ccccc12` (racemic) [Example 30, 2-methyl-4-(((1-methylpyrrolidin-2-yl)methyl)amino)phthalazin-1(2H)-one], the IC50 amounted to 1700 nM.

For the compound `CCC(CNc1nn(C)c(=O)c2ccccc12)N(C)C` (racemic) [Example 39, 4-((2-(dimethylamino)butyl)amino)-2-methylphthalazin-1(2H)-one], the IC50 came out at 180 nM.

In turn, `CN(C)C(CNc1nn(C)c(=O)c2[nH]ccc12)c1ccccc1` (racemic) [Example 10, 4-((2-(dimethylamino)-2-phenylethyl)amino)-6-methyl-1H-pyrrolo[2,3-d]pyridazin-7(6H)-one] gave an IC50 of 240 nM.

Compound `Cc1cccc2c(N[C@H](C)[C@@H](c3ccccc3)N(C)C)nn(C)c(=O)c12` (single isomer, unassigned) [Example 69B] had a half-maximal inhibitory concentration (IC50) of 170 nM.

Compound `CN(C)[C@@H]1CCCC[C@H]1Nc1nn(C)c(=O)c2cccnc12` (single isomer, unassigned) [Example 11A] registered a 50% inhibitory concentration (IC50) of 180 nM.

`CN(C)CCOc1nn(C)c(=O)c2ccccc12` [Example 48, 4-(2-(dimethylamino)ethoxy)-2-methylphthalazin-1(2H)-one] showed a half-inhibitory concentration (IC50) of 450 nM.
